Data from PMC5773487, “Harnessing insulin- and leptin-induced oxidation of PTP1B for therapeutic development” (Nature Communications, 2018).
Numbering of substitutions follows the chain as printed.

T1: K36A/K41A PTP1B-OX mutant (Homo sapiens, UniProt P18031, K36A/K41A)
T1 construct: PTP1B (1–321) and TCPTP (1–317) cloned in pET21b vector were used as templates; 6xHis (C); made in house; host or cells: E. coli BL21 (DE3)-RIL
T1 sequence (P18031 1-321 K36A/K41A): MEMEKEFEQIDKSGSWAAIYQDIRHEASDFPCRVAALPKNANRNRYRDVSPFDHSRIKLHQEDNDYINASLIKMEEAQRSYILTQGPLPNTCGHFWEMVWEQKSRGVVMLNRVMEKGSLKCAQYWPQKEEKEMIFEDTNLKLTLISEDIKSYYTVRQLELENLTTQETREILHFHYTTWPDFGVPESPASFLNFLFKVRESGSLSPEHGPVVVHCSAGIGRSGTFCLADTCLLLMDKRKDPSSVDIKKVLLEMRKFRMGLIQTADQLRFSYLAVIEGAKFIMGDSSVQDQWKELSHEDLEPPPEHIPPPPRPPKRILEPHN

T2: PTP1B-OX (Homo sapiens, UniProt P18031)
T2 construct: Purified PTP1B (1–321) (100 nM) was mixed with increasing concentrations of H2O2; 6xHis (C); made in house; host or cells: E. coli BL21 (DE3)-RIL
T2 sequence (P18031 1-321): T1 sequence (P18031 1-321 K36A/K41A) with A36K, A41K

T3: PTP1B-OX : TRX1 trapping mutant complex (Homo sapiens, UniProt P18031)
T3 sequence (P18031 1-321 limits assumed): T1 sequence (P18031 1-321 K36A/K41A) with A36K, A41K

B1: scFv45: recombinant conformation-sensor single-chain variable fragment antibody recognizing oxidized PTP1B (antibody, V domains shown)
VH: TVTLDESGGGLQAPGGALSLVCKASGFTFSSYDMGWIRQAPGKGLEYVAGITDNGRYASYGSAVDGRATISRDNGQSSVRLQLNNLRAEDTGTYYCARDDGSGWTGNSIDAWGHGTEVIVSE
VL: ALTQPSSVSANPGGTVKITCSGSSSAYGYGWYQQKSPGSAPVTVIYNNNKRPSNIPSRFSGSKSGSTGTLTITGVQAEDEAVYFCGSEDSSTDAIFGAGTTLTVL

Experiments:
[1] = biological target: T1, K36A/K41A PTP1B-OX mutant; assay: reduction and reactivation of oxidized PTP1B-K36A/K41A, DiFMUP, TCEP; format: biochemical
Procedure: Fig. 5 Chelerythrine and scFv45 inhibit reactivation of PTP1B-OX by a similar mechanism. a Molecular modeling of chelerythrine binding to PTP1B-OX, with critical residues for the interaction highlighted on the right. b Oxidized PTP1B-wt (circle), PTP1B-K36A/K41A (square) were incubated with increasing concentrations of chelerythrine (0–10 mM) and phosphatase activity was measured using DiFMUP as substrate in the presence of the reducing agent TCEP (5 mM). c Oxidized PTP1B-wt (circle), PTP1B-mut1 (square), or PTP1B-mut2 (diamond) were incubated with increasing concentrations of chelerythrine (0–10 mM) and phosphatase activity was measured using DiFMUP as substrate in the presence of the reducing agent TCEP (5 mM). Individual data points represent the mean obtained from three separate experiments (n = 3; b, c). d Overlay of crystal structures of the reduced (blue) and oxidized (gray) form of PTP1B.

[2] = biological target: T2, PTP1B-OX; assay: displacement assay of scFv antibodies from PTP1B-OX; format: binding; details: chelerythrine 0–20 μM
Procedure: To test whether there was overlap in the binding site for chelerythrine and scFv antibodies that stabilized PTP1B-OX, we performed an in vitro competition binding assay using purified components. […] We focused on scFv106 and scFv67. Purified PTP1B (50 nM) was reversibly oxidized with 250 µM H2O2 followed by a buffer exchange to remove excess H2O2. Increasing concentration of purified scFv antibody (0–10 µM) was incubated with oxidized proteins in binding buffer (20 mM HEPES pH 7.4, 300 mM NaCl, 0.05% BSA, 0.05% Tween-20) for 2 h at 4 °C. Anti-HA agarose (Roche, 50% slurry equilibrated in the binding buffer) was added and incubated for 1 h at 4 °C. Protein complexes bound to anti-HA beads were precipitated and washed three times; first with lysis buffer followed by two more washes with wash buffer (25 mM HEPES pH 7.4, 100 mM NaCl, 0.05% BSA, 0.05% Tween-20, and protease inhibitors). The protein complex was incubated with varying concentrations of chelerythrine (0–20 µM) for 2 h at 4 °C, following which the beads were washed as described above. The complexes were resolved by SDS-PAGE and analyzed by immunoblotting.

[3] = biological target: T3, PTP1B-OX : TRX1 trapping mutant complex; assay: in vitro substrate trapping of PTP1B by thioredoxin trapping mutant; format: biochemical; details: chelerythrine 5 μM
From the text: Thioredoxin (TRX), which functions to reduce oxidized cysteines in target proteins, contains an essential CXXC motif, in which the first cysteine forms a mixed disulfide intermediate with an oxidized cysteine in the target protein. The second cysteine then serves a “resolving” function—it forms a disulfide bond with the first cysteine in the CXXC motif, with the resulting transfer of electrons leading to reduction of the target protein. We utilized an assay using a “trapping mutant” form of thioredoxin in which the second cysteine is mutated to serine, which stabilizes the mixed disulfide intermediate with the target substrate.
Recombinant variants of N-terminally His-tagged human TRX1 (0.1 mg, WT, and trapping mutant, C35S) were reduced with 20 mM DTT in 1 mL PBS on ice for 30 min, then desalted on a Sephadex PD-10 column. Ten μg each of TRX1-WT and TRX1-C35S proteins was used in the trapping experiment. PTP1B (40 μg ml^−1) was incubated with H2O2 (0, 0.1 and 0.5 mM) for 10 min at room temperature and excess H2O2 was removed by desalting. Reduced and oxidized forms of PTP1B (20 μg) were incubated with WT or trapping mutant TRX1 for 20 min at room temperature in the absence and presence of chelerythrine (5 μM) in 1 mL PBS. Ni-NTA beads were added and incubated for 1 h at 4 °C. […]

[4] = test system: reduced form of PTP1B; design: method as in PMID 21962515; details: cited from earlier work
[5] = test system: TCPTP; design: method as in PMID 21962515; details: oxidized or reduced states; cited from earlier work

| Molecule | IC50 ([1]; TCEP 5 mM, DiFMUP, read-out: IC50 against K36A/K41A PTP1B-OX mutant) | inhibition of PTP1B-OX relative to K36AK41A PTP1B-OX ([1]; reviewer's summary in peer review file) | competition with scFv106 for binding to PTP1B-OX [2] | complex formation between PTP1B-OX and thioredoxin substrate trapping mutant [3] | binding to the reduced form of PTP1B [4] | binding to TCPTP [5] |
| --- | --- | --- | --- | --- | --- | --- |
| COc1ccc2c(c[n+](C)c3c4cc5c(cc4ccc23)OCO5)c1OC [chelerythrine] | 75 µM | 15 fold | competed | did not prevent complex formation |  |  |
| B1 |  |  |  |  | did not bind | does not bind |
